# Patent US10660867B2, “Beta-hydroxyketones as topical active ingredients for the prevention or treatment of photodermatoses” (Merck Patent GmbH, priority 2015, dated 2020)
# How the values were obtained:
# UV absorption spectrum = type: physicochemical
# Description: The absorption behaviour for the compound 3-(4-tert-butylphenyl)-3-hydroxy-1-(4-methoxy-phenyl)propan-1-one is depicted in FIG. 1 as representative.
# [1] = photoconversion of compound A into the UVA filter avobenzone on irradiation; type: physicochemical
# Description: As representative of the compounds of the formula (I), the efficacy of 3-(4-tert-butylphenyl)-3-hydroxy-1-(4-methoxyphenyl)propan-1-one in vivo is confirmed in the experimental part, where the proportion of UVA filter formed by decomposition of 3-(4-tert-butylphenyl)-3-hydroxy-1-(4-methoxy-phenyl)propan-1-one on exposure to UV light under the selected conditions of the study is only 0.1% by weight.
# Under the conditions of the in vivo study, conversion of compound A into the UVA filter avobenzone in an amount which could exert an influence on the skin appearances of the test subjects can be excluded.
# This can be stated because if a 2% solution of compound A in Cosmacol® ELI (C12-13 alkyl lactate) is irradiated with UVA/UVB light (20/1) in a dose of 5 MED (corresponding to 250 kJ/m^2), 0.1% of avobenzone is formed by conversion.
# Under the conditions of the in vivo experiment, a UVA dose of 20 J/cm^2 (corresponding to 200 kJ/m^2) is irradiated, i.e. even less than 0.1% of avobenzone will form by conversion under these conditions.
# [2] = system: transcription factor NF-κB; test: inhibition of activation of the transcription factor NF-κB
# Description: It is furthermore thought that the compounds of the formula (I), as described above or preferably described below, have an inflammation-inhibiting action. This property also supports the therapeutic and non-therapeutic treatment of photodermatosis. […] 1998, 95(6):729-31.
# [3] = system: test subjects with known PLE syndrome; test: in vivo comparative study, skin reactions on UVA irradiation of treated skin; parameters: key to skin reaction on UVA irradiation, treated skin: 0 denotes no reaction; ± denotes weak reaction; + denotes clear reaction; ++ denotes strong reaction; +++ denotes very strong reaction; conditions: for skin reaction on UVA irradiation, treated skin: 2.0% by wt. in O/W emulsion, 2 mg/cm^2 daily
# Protocol: In the in vivo study described below, the following O/W emulsion is used:
# A comparative study with positive control is carried out on 6 test subjects with known PLE syndrome. The study was carried out in Germany in April over a period of 5 days. The positive control was untreated, irradiated skin. The irradiation was carried out with 100% UVA light in a sub-erythemal dose, which was determined individually. The preparation was applied daily to half of the décolletage (2 mg/cm^2).
# The measurements were carried out twice daily, 10 min. after application of the preparation and immediately after irradiation.
# In the case of all test subjects, skin manifestations which have the presentation of polymorphic light eruption appeared on untreated skin. In case of 4 test subjects, no polymorphic light eruption was observed on treated skin. Only in the case of 2 test subjects was a weak reaction observed.
# [4] = of 6 test subjects with known PLE syndrome, 5 days, UVA irradiation
smiles,measurement,setting,value
"COc1ccc(C(=O)CC(O)c2ccc(C(C)(C)C)cc2)cc1 (stereo not shown) [Compound A, 3-(4-tert-butylphenyl)-3-hydroxy-1-(4-methoxyphenyl)-propan-1-one]",absorption in the UVA region,"UV absorption spectrum; UVA, 320-400 nm",does not absorb in the UVA region
same,absorption,UV absorption spectrum; wavelength 215.5 nm,0.22
same,absorption,UV absorption spectrum; wavelength 273 nm,0.22
same,avobenzone formed by conversion,"[1]; 2% solution in Cosmacol ELI (C12-13 alkyl lactate), UVA/UVB light (20/1), dose 5 MED (250 kJ/m^2)",0.1%
same,avobenzone formed by conversion,"[1]; conditions of the in vivo experiment, UVA dose 20 J/cm^2 (200 kJ/m^2)",less than 0.1%
same,proportion of UVA filter formed by decomposition on exposure to UV light,[1]; under the selected conditions of the study,0.1 % by weight
same,activation of the transcription factor NF-κB,[2],inhibits activation
same,effect on manifestations of polymorphic light eruption on irradiation,"[3]; 6 test subjects, treated vs untreated irradiated skin",suppresses or significantly reduces the manifestations of polymorphic light eruption
same,test subjects with no polymorphic light eruption observed on treated skin,[3]; [4],4 test subjects
same,test subjects with weak reaction on treated skin,[3]; [4],2 test subjects
same,"skin reaction on UVA irradiation, treated skin","[3]; test subject 1, day 1, after irradiation",0
same,"skin reaction on UVA irradiation, treated skin","[3]; test subject 1, day 1, before irradiation",0
same,"skin reaction on UVA irradiation, treated skin","[3]; test subject 1, day 2, after irradiation",0
same,"skin reaction on UVA irradiation, treated skin","[3]; test subject 1, day 2, before irradiation",0
same,"skin reaction on UVA irradiation, treated skin","[3]; test subject 1, day 3, after irradiation",0
same,"skin reaction on UVA irradiation, treated skin","[3]; test subject 1, day 3, before irradiation",0
same,"skin reaction on UVA irradiation, treated skin","[3]; test subject 1, day 4, after irradiation",±
same,"skin reaction on UVA irradiation, treated skin","[3]; test subject 1, day 4, before irradiation",±
same,"skin reaction on UVA irradiation, treated skin","[3]; test subject 1, day 5, after irradiation",±
same,"skin reaction on UVA irradiation, treated skin","[3]; test subject 1, day 5, before irradiation",±
same,"skin reaction on UVA irradiation, treated skin","[3]; test subject 2, day 1, after irradiation",0
same,"skin reaction on UVA irradiation, treated skin","[3]; test subject 2, day 1, before irradiation",0
same,"skin reaction on UVA irradiation, treated skin","[3]; test subject 2, day 2, after irradiation",0
same,"skin reaction on UVA irradiation, treated skin","[3]; test subject 2, day 2, before irradiation",0
same,"skin reaction on UVA irradiation, treated skin","[3]; test subject 2, day 3, after irradiation",0
same,"skin reaction on UVA irradiation, treated skin","[3]; test subject 2, day 3, before irradiation",0
same,"skin reaction on UVA irradiation, treated skin","[3]; test subject 2, day 4, after irradiation",0
same,"skin reaction on UVA irradiation, treated skin","[3]; test subject 2, day 4, before irradiation",0
same,"skin reaction on UVA irradiation, treated skin","[3]; test subject 2, day 5, after irradiation",0
same,"skin reaction on UVA irradiation, treated skin","[3]; test subject 2, day 5, before irradiation",0
same,"skin reaction on UVA irradiation, treated skin","[3]; test subject 3, day 1, after irradiation",0
same,"skin reaction on UVA irradiation, treated skin","[3]; test subject 3, day 1, before irradiation",0
same,"skin reaction on UVA irradiation, treated skin","[3]; test subject 3, day 2, after irradiation",0
same,"skin reaction on UVA irradiation, treated skin","[3]; test subject 3, day 2, before irradiation",0
same,"skin reaction on UVA irradiation, treated skin","[3]; test subject 3, day 3, after irradiation",0
same,"skin reaction on UVA irradiation, treated skin","[3]; test subject 3, day 3, before irradiation",0
same,"skin reaction on UVA irradiation, treated skin","[3]; test subject 3, day 4, after irradiation",0
same,"skin reaction on UVA irradiation, treated skin","[3]; test subject 3, day 4, before irradiation",0
same,"skin reaction on UVA irradiation, treated skin","[3]; test subject 3, day 5, after irradiation",0
same,"skin reaction on UVA irradiation, treated skin","[3]; test subject 3, day 5, before irradiation",0
same,"skin reaction on UVA irradiation, treated skin","[3]; test subject 4, day 1, after irradiation",0
same,"skin reaction on UVA irradiation, treated skin","[3]; test subject 4, day 1, before irradiation",0
same,"skin reaction on UVA irradiation, treated skin","[3]; test subject 4, day 2, after irradiation",0
same,"skin reaction on UVA irradiation, treated skin","[3]; test subject 4, day 2, before irradiation",0
same,"skin reaction on UVA irradiation, treated skin","[3]; test subject 4, day 3, after irradiation",0
same,"skin reaction on UVA irradiation, treated skin","[3]; test subject 4, day 3, before irradiation",0
same,"skin reaction on UVA irradiation, treated skin","[3]; test subject 4, day 4, after irradiation",0
same,"skin reaction on UVA irradiation, treated skin","[3]; test subject 4, day 4, before irradiation",0
same,"skin reaction on UVA irradiation, treated skin","[3]; test subject 4, day 5, after irradiation",0
same,"skin reaction on UVA irradiation, treated skin","[3]; test subject 4, day 5, before irradiation",0
same,"skin reaction on UVA irradiation, treated skin","[3]; test subject 5, day 1, after irradiation",0
same,"skin reaction on UVA irradiation, treated skin","[3]; test subject 5, day 1, before irradiation",0
same,"skin reaction on UVA irradiation, treated skin","[3]; test subject 5, day 2, after irradiation",0
same,"skin reaction on UVA irradiation, treated skin","[3]; test subject 5, day 2, before irradiation",0
same,"skin reaction on UVA irradiation, treated skin","[3]; test subject 5, day 3, after irradiation",0
same,"skin reaction on UVA irradiation, treated skin","[3]; test subject 5, day 3, before irradiation",0
same,"skin reaction on UVA irradiation, treated skin","[3]; test subject 5, day 4, after irradiation",0
same,"skin reaction on UVA irradiation, treated skin","[3]; test subject 5, day 4, before irradiation",0
same,"skin reaction on UVA irradiation, treated skin","[3]; test subject 5, day 5, after irradiation",0
same,"skin reaction on UVA irradiation, treated skin","[3]; test subject 5, day 5, before irradiation",0
same,"skin reaction on UVA irradiation, treated skin","[3]; test subject 6, day 1, after irradiation",0
same,"skin reaction on UVA irradiation, treated skin","[3]; test subject 6, day 1, before irradiation",0
same,"skin reaction on UVA irradiation, treated skin","[3]; test subject 6, day 2, after irradiation",0
same,"skin reaction on UVA irradiation, treated skin","[3]; test subject 6, day 2, before irradiation",0
same,"skin reaction on UVA irradiation, treated skin","[3]; test subject 6, day 3, after irradiation",±
same,"skin reaction on UVA irradiation, treated skin","[3]; test subject 6, day 3, before irradiation",±
same,"skin reaction on UVA irradiation, treated skin","[3]; test subject 6, day 4, after irradiation",±
same,"skin reaction on UVA irradiation, treated skin","[3]; test subject 6, day 4, before irradiation",±
same,"skin reaction on UVA irradiation, treated skin","[3]; test subject 6, day 5, after irradiation",±
same,"skin reaction on UVA irradiation, treated skin","[3]; test subject 6, day 5, before irradiation",±
